Patent US9006265B2, “Substituted fused pyrimidinones and dihydropyrimidinones” (Bayer Intellectual Property GmbH, priority 2010, dated 2015)
Blank lines part the entries; values can stand above or below the molecule they belong to.

How the values were obtained:
ZEAMX [1] = assay: Drought stress test on crop plants in greenhouse, spray application; assay type: in vivo, Zea mays; conditions: efficacy = percentage reduction in intensity of damage, mean of three results
Experimental: (§1) Seeds of monocotyledonous and dicotyledonous crop plants were laid out in sandy loam in wood-fiber pots, covered with soil and cultivated in a greenhouse under good growth conditions. The test plants were treated at the early leaf stage (BBCH10-BBCH13). To ensure uniform water supply before commencement of stress, the potted plants were supplied with the maximum amount of water immediately beforehand by dam irrigation and, after application, transferred in plastic inserts in order to prevent subsequent, excessively rapid drying. The inventive compounds, formulated in the form of wettable powders (WP), wettable granules (WG), suspension concentrates (SC) or emulsion concentrates (EC), were sprayed onto the green parts of the plants as an aqueous suspension at an equivalent water application rate of 600 l/ha with addition of 0.2% wetting agent (agrotin). Substance application is followed immediately by stress treatment of the plants (cold or drought stress). For cold stress treatment, the plants were kept under the following controlled conditions: • “day”: 12 hours with illumination at 8° C. • “night”: 12 hours without illumination at 1° C.
(§2) Drought stress was induced by gradual drying out under the following conditions: • “day”: 14 hours with illumination at 26° C. • “night”: 10 hours without illumination at 18° C.
(§3) The duration of the respective stress phases was guided mainly by the state of the untreated (=treated with blank formulation without test compound), stressed control plants and thus varied from crop to crop. It was ended (by re-irrigating or transfer to a greenhouse with good growth conditions) as soon as irreversible damage was observed on the untreated, stressed control plants. In the case of dicotyledonous crops, for example oilseed rape and soybeans, the duration of the drought stress phase varied between 3 and 5 days, in the case of monocotyledonous crops, for example wheat, barley or corn, between 6 and 10 days. The duration of the cold stress phase varied between 12 and 14 days.
(§4) The end of the stress phase was followed by an approx. 5-7-day recovery phase, during which the plants were once again kept under good growth conditions in a greenhouse. In order to rule out any influence of the effects observed by any fungicidal action of the test compounds, it was additionally ensured that the tests proceeded without fungal infection and without infection pressure.
(§5) After the recovery phase had ended, the intensities of damage were rated in visual comparison to untreated, unstressed controls of the same age (in the case of drought stress) or the same growth stage (in the case of cold stress). The intensity of damage was first assessed as a percentage (100%=plants have died, 0%=like control plants). These values were then used to calculate the efficacy of the test compounds (=percentage reduction in the intensity of damage as a result of substance application) by the following formula:
(§6) [formula] EF: efficacy (%) DVus: damage value of the untreated, stressed control DVts: damage value of the plants treated with test compound
(§7) The tables A-1 and B-1 to B-4 below list mean values in each case from three results of the same test.
(§8) Efficacies of selected compounds of the formula (I) under drought stress using the examples of HORVS, BRSNS, ZEAMX und TRZAS: […]

HORVS = assay: as above; assay type: in vivo, Hordeum vulgare; conditions: dosage 500 g/ha, efficacy = percentage reduction in intensity of damage, mean of three results
Experimental: Seeds of monocotyledonous and dicotyledonous crop plants were laid out in sandy loam in wood-fiber pots, covered with soil and cultivated in a greenhouse under good growth conditions. The test plants were treated at the early leaf stage (BBCH10-BBCH13). To ensure uniform water supply before commencement of stress, the potted plants were supplied with the maximum amount of water immediately beforehand by dam irrigation and, after application, transferred in plastic inserts in order to prevent subsequent, excessively rapid drying. The inventive compounds, formulated in the form of wettable powders (WP), wettable granules (WG), suspension concentrates (SC) or emulsion concentrates (EC), were sprayed onto the green parts of the plants as an aqueous suspension at an equivalent water application rate of 600 l/ha with addition of 0.2% wetting agent (agrotin). Substance application is followed immediately by stress treatment of the plants (cold or drought stress). […]
After the recovery phase had ended, the intensities of damage were rated in visual comparison to untreated, unstressed controls of the same age (in the case of drought stress) or the same growth stage (in the case of cold stress). The intensity of damage was first assessed as a percentage (100%=plants have died, 0%=like control plants). […]

ZEAMX [2] = assay: Cold stress test on crop plants in greenhouse, spray application; assay type: in vivo, Zea mays; conditions: efficacy = percentage reduction in intensity of damage, mean of three results
Experimental: Seeds of monocotyledonous and dicotyledonous crop plants were laid out in sandy loam in wood-fiber pots, covered with soil and cultivated in a greenhouse under good growth conditions. The test plants were treated at the early leaf stage (BBCH10-BBCH13). To ensure uniform water supply before commencement of stress, the potted plants were supplied with the maximum amount of water immediately beforehand by dam irrigation and, after application, transferred in plastic inserts in order to prevent subsequent, excessively rapid drying. The inventive compounds, formulated in the form of wettable powders (WP), wettable granules (WG), suspension concentrates (SC) or emulsion concentrates (EC), were sprayed onto the green parts of the plants as an aqueous suspension at an equivalent water application rate of 600 l/ha with addition of 0.2% wetting agent (agrotin). Substance application is followed immediately by stress treatment of the plants (cold or drought stress). For cold stress treatment, the plants were kept under the following controlled conditions: • “day”: 12 hours with illumination at 8° C. • “night”: 12 hours without illumination at 1° C. The duration of the respective stress phases was guided mainly by the state of the untreated (=treated with blank formulation without test compound), stressed control plants and thus varied from crop to crop. It was ended (by re-irrigating or transfer to a greenhouse with good growth conditions) as soon as irreversible damage was observed on the untreated, stressed control plants. In the case of dicotyledonous crops, for example oilseed rape and soybeans, the duration of the drought stress phase varied between 3 and 5 days, in the case of monocotyledonous crops, for example wheat, barley or corn, between 6 and 10 days. The duration of the cold stress phase varied between 12 and 14 days. The end of the stress phase was followed by an approx. 5-7-day recovery phase, during which the plants were once again kept under good growth conditions in a greenhouse. In order to rule out any influence of the effects observed by any fungicidal action of the test compounds, it was additionally ensured that the tests proceeded without fungal infection and without infection pressure. After the recovery phase had ended, the intensities of damage were rated in visual comparison to untreated, unstressed controls of the same age (in the case of drought stress) or the same growth stage (in the case of cold stress). The intensity of damage was first assessed as a percentage (100%=plants have died, 0%=like control plants). These values were then used to calculate the efficacy of the test compounds (=percentage reduction in the intensity of damage as a result of substance application) by the following formula: [formula] EF: efficacy (%) DVus: damage value of the untreated, stressed control DVts: damage value of the plants treated with test compound The tables A-1 and B-1 to B-4 below list mean values in each case from three results of the same test. Efficacies of selected compounds of the formula (I) under cold stress using the example of ZEAMX: […]

BRSNS = assay: Drought stress test on crop plants in greenhouse, spray application; assay type: in vivo, Brassica napes; conditions: efficacy = percentage reduction in intensity of damage, mean of three results
Experimental: as §1, §2, §3, §4, §5, §6, §7, §8

TRZAS = assay: as above; assay type: in vivo, Triticum aestivum; conditions: efficacy = percentage reduction in intensity of damage, mean of three results
Experimental: as §1, §2, §3, §4, §5, §6, §7, §8

SMILES: CC(C)c1nc2ccccc2c(=O)[nH]1 [I.1-15]
EF (ZEAMX) (ZEAMX [1]; dosage 500 g/ha): >5%

SMILES: O=c1[nH]c(-c2nc[nH]n2)nc2ccccc12 [I.1-30]
EF (ZEAMX) (ZEAMX [1]; dosage 500 g/ha): >5%

SMILES: Cc1nc2c([N+](=O)[O-])cccc2c(=O)[nH]1 [I.1-32]
EF (HORVS) (HORVS): >5%

SMILES: COc1cccc2c(=O)[nH]c(-c3ccc([N+](=O)[O-])cc3)nc12 [I.1-36]
EF (ZEAMX) (ZEAMX [2]; dosage 25 g/ha): >5%

SMILES: Cc1ccc(-c2nc3ccccc3c(=O)[nH]2)o1 [I.1-44]
EF (ZEAMX) (ZEAMX [1]; dosage 500 g/ha): >5%

SMILES: Cc1cc(-c2nc3ccccc3c(=O)[nH]2)oc1C [I.1-45]
EF (ZEAMX) (ZEAMX [1]; dosage 500 g/ha): >5%

SMILES: Cc1nc[nH]c1-c1nc2cc(Cl)ccc2c(=O)[nH]1 [I.1-139]
EF (ZEAMX) (ZEAMX [1]; dosage 500 g/ha): >5%

SMILES: Cc1cccc2c(=O)[nH]c(CCc3ccccc3)nc12 [I.1-145]
EF (BRSNS) (BRSNS; dosage 50 g/ha): >5%

SMILES: O=c1[nH]c(C2CCCC2)nc2c(O)cccc12 [I.1-148]
EF (ZEAMX) (ZEAMX [1]; dosage 500 g/ha): >5%

SMILES: CCCCCc1nc2c(OC)cccc2c(=O)[nH]1 [I.1-153]
EF (ZEAMX) (ZEAMX [1]; dosage 500 g/ha): >5%
EF (BRSNS) (BRSNS; dosage 500 g/ha): >5%

SMILES: COc1cccc2c(=O)[nH]c(C3CCCC3)nc12 [I.1-157]
EF (ZEAMX) (ZEAMX [1]; dosage 500 g/ha): >5%

SMILES: Cc1cc(Cl)cc2c(=O)[nH]c(-c3[nH]ncc3Br)nc12 [I.1-165]
EF (ZEAMX) (ZEAMX [1]; dosage 250 g/ha): >5%
EF (TRZAS) (TRZAS; dosage 250 g/ha): >5%
EF (BRSNS) (BRSNS; dosage 250 g/ha): >5%

SMILES: O=c1[nH]c(CCc2ccccc2)nc2c(Cl)cccc12 [I.1-172]
EF (ZEAMX) (ZEAMX [2]; dosage 25 g/ha): >5%

SMILES: O=c1[nH]c(-c2ccc(C#Cc3ccccc3F)o2)nc2cc(Cl)ccc12 [I.1-181]
EF (BRSNS) (BRSNS; dosage 250 g/ha): >5%

SMILES: Cn1cccc1-c1nc2cc(Cl)ccc2c(=O)[nH]1 [I.1-197]
EF (ZEAMX) (ZEAMX [1]; dosage 250 g/ha): >5%
EF (TRZAS) (TRZAS; dosage 250 g/ha): >5%

SMILES: O=c1[nH]c(-c2cc(Br)cs2)nc2c(Cl)cccc12 [I.1-201]
EF (ZEAMX) (ZEAMX [1]; dosage 250 g/ha): >5%

SMILES: O=c1[nH]c(-c2ccc(Br)cc2)nc2c(Cl)cccc12 [I.1-204]
EF (ZEAMX) (ZEAMX [2]; dosage 25 g/ha): >5%

SMILES: O=c1[nH]c(COc2ccccc2)nc2cc(Cl)ccc12 [I.1-303]
EF (ZEAMX) (ZEAMX [1]; dosage 250 g/ha): >5%

SMILES: Cc1ccc2c(=O)[nH]c(-c3ccc(Cl)cc3)nc2c1 [I.1-318]
EF (ZEAMX) (ZEAMX [1]; dosage 250 g/ha): >5%

SMILES: Cc1cccc2c(=O)[nH]c(/C=C/c3cccnc3)nc12 [I.1-338]
EF (ZEAMX) (ZEAMX [1]; dosage 100 g/ha): >5%
EF (TRZAS) (TRZAS; dosage 100 g/ha): >5%
EF (BRSNS) (BRSNS; dosage 100 g/ha): >5%

SMILES: Cc1cccc2c(=O)[nH]c(-c3ccc(Br)cc3)nc12 [I.1-378]
EF (TRZAS) (TRZAS; dosage 250 g/ha): >5%

SMILES: COc1cc2nc(-c3ccoc3)[nH]c(=O)c2cc1OC [I.1-424]
EF (ZEAMX) (ZEAMX [1]; dosage 250 g/ha): >5%

SMILES: COc1cc2nc(/C=C/c3cc(OC)c(O)c(OC)c3)[nH]c(=O)c2cc1OC [I.1-429]
EF (ZEAMX) (ZEAMX [2]; dosage 250 g/ha): >5%

SMILES: COc1cc2nc(-c3cccc(C(F)(F)F)c3)[nH]c(=O)c2cc1OC [I.1-440]
EF (ZEAMX) (ZEAMX [2]; dosage 25 g/ha): >5%

melting point: 234 °C
SMILES: Cc1ccc(-c2nc3c(C)cccc3c(=O)[nH]2)c(Cl)c1 [I.1-505, 2-(2-Chloro-4-methylphenyl)-8-methylquinazolin-4(3H)-one]

SMILES: Cc1nn2c([nH]c(=O)c3ccccc32)c1-c1ccccc1 [I.3-1]
EF (BRSNS) (BRSNS; dosage 250 g/ha): >5%
